From patent publication US20130274185A1, “Pharmaceutical for Pseudo-Exercise Therapy” (THE UNIVERSITY OF TOKYO, priority 2010, published 2013)

Key:
muscle-R1KO mice [1] = test: Increased calcium influx experiment (Bay-K 8644 hydrogel) in muscle-R1KO mice; type: in vivo; conditions: 0.25 μM Bay-K 8644
C2C12 myocytes [2] = test: Calcium imaging in C2C12 myocytes (fura-2); type: cell-based, mouse
Experimental: C212 myocytes cultured on glass base dishes (IWAKI) were treated with 2.5 μM fura-2/AM for 30 min. Fluorescence was measured with an Aquacosmos Calcium Imaging system (Hamamatsu Photonics). Ligands were delivered through the superfusing Ringer's solution (140 mM NaCl, 5.6 mM KCl, 5 mM HEPES, 2.0 mM sodium pyruvate, 1.25 mM KH2PO4, 2.0 mM CaCl2, 2.0 mM MgCl2, 9.4 mM D-glucose (pH 7.4)). For the calcium chelating experiment, EGTA solution (140 mM NaCl, 5.6 mM KCl, 5 mM HEPES, 2.0 mM sodium pyruvate, 1.25 mM KH2PO4, 2.0 mM MgCl2, 5.0 mM EGTA-2Na, 9.4 mM D-glucose (pH 7.4) was used for the bath solution. Fura-2 fluorescence ratios were calibrated to calcium ion signals.

AdipoR1 = molecular target: T1, AdipoR1 (Mus musculus, UniProt Q91VH1); test: Electrophysiological recording in Xenopus oocytes expressing AdipoR1; type: cell-based; conditions: oocytes expressing AdipoR1, 5 mM EGTA
T1 construct: expressed in transfected cells; host or cells: Xenopus oocytes (stage V to VII), cRNA synthesized from linearized modified pSPUTK
T1 sequence (Q91VH1 1-375): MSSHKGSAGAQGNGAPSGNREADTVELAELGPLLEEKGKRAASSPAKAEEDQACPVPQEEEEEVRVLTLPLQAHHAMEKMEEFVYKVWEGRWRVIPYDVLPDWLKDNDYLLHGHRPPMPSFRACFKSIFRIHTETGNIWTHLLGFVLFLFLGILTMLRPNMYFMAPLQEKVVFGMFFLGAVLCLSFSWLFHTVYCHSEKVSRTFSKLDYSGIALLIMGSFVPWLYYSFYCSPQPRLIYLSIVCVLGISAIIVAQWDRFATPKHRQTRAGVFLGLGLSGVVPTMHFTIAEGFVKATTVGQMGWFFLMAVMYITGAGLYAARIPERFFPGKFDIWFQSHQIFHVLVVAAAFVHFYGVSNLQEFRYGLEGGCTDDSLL
Experimental: Stage V to VII oocytes were treated with 2 mg/ml of collagenase S-1 (Nitta gelatin) in calcium ion-free saline solution (82.5 mM NaCl, 2 mM KCl, 1 mM MgCl2, and 5 mM HEPES, pH 7.5) for 1 to 2 hr at room temperature. The resulting oocytes were then microinjected with 50 ng of cRNA for mAdipoR1. The cRNA was synthesized from linearized modified pSPUTK. The injected oocytes were incubated for 3 days at 18° C. in a bath solution (88 mM NaCl, 1 mM KCl, 0.3 mM Ca(NO3)2, 0.4 mM CaCl2, 0.8 mM MgSO4, 2.4 mM […], 15 mM HEPES, pH 7.6) supplemented with 10 μg/ml of penicillin and streptomycin.
Whole cell currents were recorded with a two-electrode voltage clamp technique. Intracellular glass electrodes were filled with 3M KCl. Signals were amplified with an OC-725C amplifier (Warner Instruments), low-pass filtered at 50 Hz, and digitized at 1 kHz. A control bath solution contained 115 mM NaCl, 2.5 mM KCl, 1.8 mM CaCl2, and 10 mM HEPES. It was titrated to pH 7.2 with NaOH. A calcium ion free solution containing 1.8 mM BaCl2 instead of CaCl2 was used. The inward current was monitored at a holding potential of −80 mV. Calcium ion activated Cl^− current was monitored by applying 500-mscc depolarizing pulses of +100 mV and +50 mV from the holding potential of −80 mV. Adiponectin was supplied to the superfusing bath solution via a silicon tube connected to computer-driven solenoid valves. Data acquisition and analysis were carried out using Digidata 1322A and pCLAMP software.

CaMKI = CaMKI phosphorylation in C2C12 myocytes; type: cell-based, mouse; conditions: EGTA 5 mM
Experimental: (§1) The mouse C2C12 myoblasts were grown in 90% Dulbecco's modified high glucose Eagle's medium containing 10% (v/v) fetal bovine serum. When the cells reached 80% confluent, the myoblasts were induced to differentiate into myocytes by replacing the medium with a low serum differentiation medium (98% Dulbecco's modified high glucose Eagle's medium, 2.5% (v/v) horse serum). The medium was changed daily. The C2C12 cells were transfected by using Pofectamine 2000 (Invitrogen) and following the manufacturer's instructions.

AMPK = AMPK phosphorylation in C2C12 myocytes; type: cell-based, mouse; conditions: C2C12; for effect on adiponectin-induced increased AMPK phosphorylation: preincubation 5 mM EGTA 20 min, 50 μM BAPTA-AM 30 min or 10 μM U73122 30 min, then adiponectin 30 μg/ml 5 min
Experimental: as §1

PGC-1α (Ppargc1a) = PGC-1α (Ppargc1a) expression in C2C12 myocytes; type: cell-based, mouse; conditions: C2C12; preincubation AraA 0.5 mM 1 hr, STO-609 1 μg/ml 6 hr or EGTA 5 mM 20 min, then adiponectin 10 μg/ml 1.5 hr
Experimental: Real-time PCR was carried out according to the method described in the following documents (Nature Med. 13, 332-339 2007); Nature 423, 762-769 (2003); J. Biol. Chem. 281, 8748-8755 (2006)). Total RNA was prepared from cells or tissues by using Trizol (Invitrogen) according to the manufacturer's instructions. Quantification of mRNA was conducted using a real-time PCR method (Nature 423, 762-769 (2003)) with slight modifications. The procedures used for immunoblotting are described in the following documents (Nature Med. 7, 941-946 (2001); J. Biol. Chem. 281, 26602-26614 (2006); J. Biol. Chem. 281, 8748-8755 (2006)). The livers or muscles were freeze-clamped in liquid nitrogen in situ (Nature Med. 7, 941-946 (2001); J. Biol. Chem. 281, 26602-26614 (2006); J. Biol. Chem. 281, 8748-8755 (2006)).
as §1

muscle-R1KO mice [3] = test: Treatment of muscle-R1KO mice with AICAR, resveratrol or MnTBAP; type: in vivo; conditions: AICAR 500 mg per kg body weight, 2 hours
Experimental: Mitochondrial content assays were carried out as described in the following document (Cell Metab. 4, 75-87 (2006)), with slight modifications. Quantification of the mitochondrial content was conducted by using mtDNA and MitoTracker Green probe (Molecular Probes) according to the method as described in the following document (Obes. Res. 13, 574-581 (2005)). MitoTracker Green probe preferentially accumulates in mitochondria regardless of the mitochondrial membrane potential and provides an accurate assessment of mitochondrial mass. Cells were washed with PBS and after addition of 100 nM MitoTracker Green FM (Molecular Probes), incubated at 37° C. for 30 min. […] Fluorescence intensity was detected with excitation and emission wavelengths of 490 and 516 nm, respectively, and the values thus measured were corrected for total protein (mg/ml).
Oral glucose tolerance test (OGTT) and insulin tolerance test (ITT) were conducted by the method described in the following documents (Nature Med. 8, 1288-1295 (2002); Nature Med. 7, 941-946 (2001)), with some modifications. The areas of the glucose and insulin curves were calculated, respectively, by multiplying the cumulative mean height of the glucose values (1 mg/ml=1 cm) and insulin values (1 ng/ml=1 cm) by time (60 min=1 cm) (Nature Med. 13, 332-339 (2007); Nature Med. 7, 941-946 (2001)). […]

C2C12 myocytes [4] = test: Mitochondrial content assay in C2C12 myocytes; type: cell-based, mouse; conditions: C2C12; preincubation AraA 0.5 mM 1 hr or STO-609 1 μg/ml 6 hr, then 10 μg/ml adiponectin 48 hr
Experimental: as §1
Mitochondrial content assays were carried out as described in the following document (Cell Metab. 4, 75-87 (2006)), with slight modifications. Quantification of the mitochondrial content was conducted by using mtDNA and MitoTracker Green probe (Molecular Probes) according to the method as described in the following document (Obes. Res. 13, 574-581 (2005)). MitoTracker Green probe preferentially accumulates in mitochondria regardless of the mitochondrial membrane potential and provides an accurate assessment of mitochondrial mass. Cells were washed with PBS and after addition of 100 nM MitoTracker Green FM (Molecular Probes), incubated at 37° C. for 30 min. Cells were harvested by using trypsin/EDTA and resuspended in PBS. Fluorescence intensity was detected with excitation and emission wavelengths of 490 and 516 nm, respectively, and the values thus measured were corrected for total protein (mg/ml).

## COC(=O)C1=C(C)NC(C)=C([N+](=O)[O-])C1c1ccccc1C(F)(F)F (centres unmarked) [Bay-K 8644]
muscle-R1KO mice [1]
  CaMKKβ activity (phosphorylation of CaMKI) in skeletal muscle: increase in CaMKKβ activity

## O=C(O)CN(CCOCCOCCN(CC(=O)O)CC(=O)O)CC(=O)O [EGTA, reference compound]
C2C12 myocytes [2]; 5 mM EGTA
  effect on adiponectin-induced calcium ion response: almost completely abolished
C2C12 myocytes [2]; EGTA
  effect on ATP-induced intracellular calcium ion release: had no effect
AdipoR1
  effect on adiponectin-induced inward current responses: almost completely abolishes
  effect on calcium-ion activated Cl- current responses to adiponectin: almost completely abolished
CaMKI
  effect on increased CaMKI phosphorylation stimulated with adiponectin: almost completely abolished
AMPK; 5 mM EGTA, AICAR 1 mM 1 hr
  effect on phosphorylation of AMPK induced by AICAR: had no effect
AMPK; 5 mM EGTA, ionomycin 1 μM 5 min
  effect on ionomycin-dependent phosphorylation of AMPK: almost completely abolished
AMPK
  effect on adiponectin-induced increased AMPK phosphorylation: partially suppressed
PGC-1α (Ppargc1a)
  effect on PGC-1α expression induced by adiponectin: effectively and almost completely abolished

## COc1ccc2c(c1)CC[C@@H]1[C@@H]2CC[C@]2(C)[C@@H](NCCCCCCN3C(=O)C=CC3=O)CC[C@@H]12 [U73122]
AMPK
  effect on adiponectin-induced increased AMPK phosphorylation: had little effect

## NC(=O)c1ncn([C@@H]2O[C@H](CO)[C@@H](O)[C@H]2O)c1N [AICAR, 5-aminoimidazole-4-carboxamide-1-β-D-libocide]
muscle-R1KO mice [3]
  phosphorylation of AMPK in muscle: significantly increased

## Nc1ncnc2c1ncn2[C@@H]1O[C@H](CO)[C@@H](O)[C@@H]1O [AraA, reference compound]
PGC-1α (Ppargc1a)
  effect on PGC-1α expression induced by adiponectin: only tended to decrease
C2C12 myocytes [4]
  effect on the adiponectin-induced increase in mitochondrial biogenesis: almost completely abolished

## CC(=O)OCOC(=O)CN(CC(=O)OCOC(C)=O)c1ccccc1OCCOc1ccccc1N(CC(=O)OCOC(C)=O)CC(=O)OCOC(C)=O [BAPTA-AM, Bis-(o-aminophenoxy)ethane-N,N,N9,N9-tetra-acetic acid, tetraacetoxymethyl ester]
AMPK
  effect on adiponectin-induced increased AMPK phosphorylation: partially suppressed

## O=C(O)c1ccc2c3c1cccc3c(=O)n1c3ccccc3nc21 [STO-609, reference compound]
PGC-1α (Ppargc1a)
  effect on PGC-1α expression induced by adiponectin: effectively and almost completely abolished
C2C12 myocytes [4]
  effect on the adiponectin-induced increase in mitochondrial biogenesis: almost completely abolished
